Like-named read-outs stand apart in the source and are kept apart here. One block for each molecule: values may come before it.
How the values were obtained:
[1] = test system: Lentinus sp. laccase, wild type, purified from culture; test: Laccase kinetics of purified Lentinus sp. laccase; type: biochemical
Procedure: All chemicals used in this study were obtained from Merck (Darmstadt, Germany) or Sigma-Aldrich (St. Louis, Mo. USA). All spectrophotometric measurements were performed using the Beckman DU 640 spectrophotometer (Beckman Coulter, USA).
Kinetic parameters Km and Vmax were determined as follows. […] The oxidation reactions of guaiacol and 2,6-DMP were monitored by determining OD436 values (ε=6,400 M^−1cm^−1) and OD468 values (ε=49,600 M^−1 cm^−1), respectively. The kinetic parameters were determined by nonlinear regression analysis (ENZFITTER software program, Elsevier-Biosoft, Cambridge, UK) using the Michaelis-Menten model.
Kinetic parameters were determined following conventional methods. See also Example 1 above.

Cerrena unicolor laccase = settings: ABTS as substrate; optimum 70 °C at pH 3.5; cited from earlier work
[2] = test system: Trametes versicolor laccase; settings: ABTS as substrate, optimum 55 °C at pH 4.0, cited from earlier work
[3] = test system: Pleurofus sajor-caju laccase; settings: ABTS as substrate, optimum 40 °C at pH 5.0, cited from earlier work
[4] = test system: Trametes C30 laccase LAC2; settings: ABTS as substrate, optimum 55 °C at pH 5.7, cited from earlier work
[5] = test system: Panus(Lentinus)tigrinus 8/18 laccase; settings: ABTS as substrate; cited from earlier work
Panus tigrinus laccase = settings: ABTS as substrate, optimum 30 °C at pH 3.5, cited from earlier work
[6] = test system: Trametes pubescens laccase LAP2; settings: ABTS as substrate, optimum 25 °C at pH 4.0, cited from earlier work
[7] = test system: Pycnoporus sanguineus laccase; settings: ABTS as substrate, optimum 25 °C at pH 3.0, cited from earlier work
Agaricus blazei laccase = settings: ABTS as substrate, optimum 25 °C at pH 2.3, cited from earlier work
[8] = Laccase activity in culture media of recombinant P. pastoris; type: biochemical; settings: expressed in P. pastoris X-33; 13-26 day (Lcc1-3) or 18-day (LccA) cultivation
Text: The EasySelect™ Pichia Expression System (Invitrogen) was used in this study for expression of Lcc1, Lcc2, and Lcc3 laccases. cDNA fragments coding for these three laccases were cloned into Pichia expression vector pPICZA or pPICZaB via EcoRI and NotI restriction sites. More specifically, the lcc1 gene coding for Lcc1 precursor (including a signal peptide sequence) was cloned into pPICA to generate expression plasmid pPICZA-lcc1 and the lcc2 and lcc3 genes coding for mature Lcc2 and Lcc3 were cloned into pPICZaB to obtain expression plasmids pPICZaB-lcc2 and pPICZaB-lcc3, respectively. The three expression plasmids were introduced into P. pastoris X-33 cells following the method described in Invitrogen's protocol. Positive transformants were cultured in BMMY (1% yeast extract, 2% peptone, 100 mM potassium phosphate, pH 6.0, 1.34% yeast nitrogen base, 0.00004% biotin, and 0.5% methanol) at 25° C., 200 rpm for 12-26 days. Methanol was added to the culture media daily to reach a final concentration of 0.5%. During the cultivation, 1 ml of the supernatant was collected at various time points. The laccase activity and cell density in the supernatant were determined following the method described above or routine procedures.
pPICZ-lccA was introduced into Pichia pastoris strain X-33 host cells (Invitrogen) and positive transformants were selected for LccA expression. Briefly, a positive transformant was cultured in BMMY medium containing 1% yeast extract, 2% peptone, 1.34% yeast nitrogen base, 0.00004% biotin, and 0.5% methanol at 25° C. and 200 rpm for 20 days. Methanol was daily added to reach a final concentration of 0.5%. Within the 20-day cultivation, 1 ml of the supernatant was collected; laccase activity and cell growth were determined.

[9] = substrate: COc1ccccc1O; test: Laccase kinetics of purified Cerrena sp. WR1 Lcc3; type: biochemical; settings: other: guaiacol as substrate, 50 mM citrate buffer, 70 °C, pH 4.5, pH 4.5
[10] = substrate: COc1cccc(OC)c1O; test: Laccase kinetics of purified Cerrena sp. WR1 Lcc3; type: biochemical; settings: other: 2,6-DMP as substrate, 50 mM citrate buffer, 70 °C, pH 3.5, pH 3.5
[11] = substrate: CCn1c(=NN=c2sc3cc(S(=O)(=O)O)ccc3n2CC)sc2cc(S(=O)(=O)O)ccc21; test: purified protein, by the assay type; settings: other: ABTS as substrate, 50 mM citrate buffer, 50 °C, pH 3.0
[12] = ABTS as substrate, optimum 70 °C at pH 2.5
[13] = 2,6-DMP as substrate, optimum 60 °C at pH 3.5
[14] = guaiacol as substrate, optimum 70 °C at pH 5.0

Km [1, 12]: 8.4 µM
kcat [1, 12]: 2016.5 s⁻¹
Molecule: CCn1c(=NN=c2sc3cc(S(=O)(=O)O)ccc3n2CC)sc2cc(S(=O)(=O)O)ccc21 [ABTS, 2,2′-azino-bis-(3-ethylbenzthiazoline-6-sulfonic acid)]
Km (Cerrena unicolor laccase): 800 µM
Km ([2]; Table 2): 37.3 µM
Km ([2]; Table 4): 37.3 µM
kcat [2]: 351.3 s⁻¹
Km ([3]; Table 2): 56 µM
Km ([3]; Table 4): 56 µM
kcat [3]: 520.24 s⁻¹
Km ([4]; Table 2): 536 µM
Km ([4]; Table 4): 536 µM
kcat [4]: 683.33 s⁻¹
Km [5]: 33.4 µM
Km (Panus tigrinus laccase; Table 2): 31 µM
Km (Panus tigrinus laccase; Table 4): 31 µM
kcat (Panus tigrinus laccase): 185.69 s⁻¹
Km ([6]; Table 2): 43 µM
Km ([6]; Table 4): 43 µM
kcat [6]: 350 s⁻¹
Km ([7]; Table 2): 77 µM
Km ([7]; Table 4): 77 µM
kcat [7]: 1.155 s⁻¹
Km (Agaricus blazei laccase; Table 2): 63 µM
Km (Agaricus blazei laccase; Table 4): 63 µM
kcat (Agaricus blazei laccase): 21 s⁻¹

Molecule: COc1cccc(OC)c1O [2,6-DMP, 2,6-dimethoxyphenol]
Km [1, 13]: 434 µM
kcat [1, 13]: 121.9 s⁻¹

Km [1, 14]: 524 µM
kcat [1, 14]: 305.5 s⁻¹
Molecule: COc1ccccc1O [guaiacol]

B1: LccA: laccase from Lentinus sp., GenBank accession no. FJ693715; SEQ ID NO:4 mature, 10 precursor (protein)
chain: GIGPIASLVVTDAQISPDGYLRDAIVTNGVFPAPLITGRKGDHFQLNVVDSMTNHTMLKSTSIHWHGFFQKGTNWADGPAFVNQCPISSGHSFLYDFHVPDQAGTFWYHSHLSTQYCDGLRGPMVVYDPNDPHANLYDIDNDSTVITLADWYHVAAKLGPRFPLGADATLINGKGRSPATPTAALSVINVVKGKRYRFRLVSISCDPNYVFSIDNHTMTVIEADTVNTQPLAVDSIQIFAAQRYSFILNANQPVDNYWIRANPNFGNVGFTDGINSAILRYTGAALVEPSATTAPTLSNPLVETNLHPLAPMPVPGQPVSGGVDKAINFAFNFDGTDFFINGASFVPPTVPVLLQIMSGASTAQDLLPSGSVYPLPSNATIELSFPATAAAPGAPHPFHLHGHVFAVVRSAGSTTYNYNNPIWRDVVSTGTPAAGDNVTIRFSTNNPGPWFLHCHIDFHLEAGFAVVMAEDVPDIPSANPVPQAWSNLCPTYNALSSDDQ
modifications: Lentinus sp
laccase activity in culture media [8]: about 400 U/L

B2: Lcc1: laccase from Cerrena sp. WR1, GenBank accession no. GQ899201; SEQ ID NO:1 mature, 7 precursor (protein)
chain: AIGPVTDLEITNGTISPDGYSRAAVLAGGSFPGPLITGNKSDNFQINVVNSLADSDMLKSTTVHWHGFFQKGTNWADGPAFVNQCPIATGNSFLYNFNATDQAGTFWYHSHLETQYCDGLRGPMVVYDPDDPHADLYDVDDDSTVITLADWYHTLARLGAAFPTSDATLINGLGRYSDGNTTDLAVITVESGKRYRFRLVSISCDPNFTFSIDNHTMTIIEADAVNYTPLDVDEIQIFAGQRYSFILTANQTVDNYWIRADPNVGTTGFDNGINSAILRYSGADEVEPTTNQTTSTNPLVEANLVPLDGAAAPGEAVAGGVDYALNLALAFDGTNLDFTVNGYEYTSPTVPVLLQILSGASSVDDLLPSGSIYSLPSNSTIELSIPALAVGAPHPIHLHGHTFSVVRSAGSTTYNYDNPPRRDVVSIGTATDDNVTIRFTTDNPGPWFLHCHIDFHLEAGFAVVFAEDFNDTASANTVTTEWSDLCTTYDALSSDDL
modifications: Cerrena sp
laccase activity in culture media [8]: approximately 800 U/L

B3: Lcc2: laccase from Cerrena sp. WR1, GenBank accession no. GQ899202; SEQ ID NO:2 mature, 8 precursor (protein)
chain: AIGPVTDLTITNATISPDGFSRQAVLAGGVFPGPLITGNKGDNFQINVVNSLENSDMLKSTTIHWHGFFQKGTNWADGPAFVNQCPIATGNSFLYNFNADDQAGTFWYHSHLSTQYCDGLRGPMVVYDPNDPHASLYDVDDESTVITLADWYHTLARLGAAFPTADATLINGLGRYSDGTTSDLAVITVESGKRYRFRLVNISCDPNYTFSIDNHTFTVIEVDGVNHAALDVDEIQIFAGQRYSFVLTANQTVDNYWIRANPNLGTTGFDNGINSAILRYSGANETEPTTTQTTATAALSEASLVPLEDPAAPGEAVAGGVDYALNLAFAFDGANLDFTVNGETYVSPTVPVLLQILSGASSVSDLLPAGSVYSLPSNSTIELSMPGGVVGGGHPLHLHGHAFSVVRSAGSDTYNYVNPPRRDVVNIGAAGDNVTIRFTTDNPGPWFLHCHIDFHLEAGFAVVFAEDFNATASSNTVTTEWSNLCTTYDALSADDQ
modifications: Cerrena sp
laccase activity in culture media [8]: ~160 U/L

B4: Cerrena sp. WR1 laccase Lcc3, wild type (mature SEQ ID NO: 3; precursor SEQ ID NO: 9; GenBank GQ899203) (Cerrena sp. WR1) (protein)
chain: AIGPVADLHITDANVSPDGFTRPAVLAGGTFPGPLITGKQGDNFQINVIDELTDATMLKSTSIHWHGIFQKGTNWADGPSFVNQCPITTGNSFLYDFSVPDQTGTYWYHSHLSTQYCDGLRGALVIYDDNDPHKDLYDVDDETTVITLADWYHTQARLITGVPVSDATLINGLGRYLNGPTDAPLAVITVDQGKRYRFRLVSISCDPNFVFSIDNHSMTVIEVDAVNSQPLVVDSIQIFAAQRYSFILNANQSVGNYWIRANPNLGNTGFTNGINSAILRYNGAPVAEPNTTQTASTNPLNEVNLHPLVPTPVPGTPQPGGVDVVQNLVLGFSGGKFTINGVAFSPPTVPVLLQILSGTTTAQDLLPTGSIIELPLGKTVELTLAAGVLGGPHPFHLHGHTFHVVRSAGQTTPNYVDPILRDTVNTGAAGDNVTIRFTTDNPGPWFLHCHIDWHLEAGFAVVFAEGLNQTNAANPTPDAWNNLCDLYNALPAGDQ
notes: WR1 culture supernatant (Q Sepharose); precursor 516 aa with 21-residue signal peptide
Km [9]: 849.1 µM
kcat [9]: 148 s⁻¹
Km [10]: 392.7 µM
kcat [10]: 109 s⁻¹
kcat/Km [10]: 280000 M⁻¹ s⁻¹
Km [11]: 3.27 µM
kcat [11]: 934.6 s⁻¹

— patent US8728787B2, “Fungal laccases and uses thereof” (Academia Sinica, priority 2010, dated 2014)
